In US10849901B2, “Arf6 inhibitors and methods of synthesis and use thereof” (Navigen, Inc., priority 2014, dated 2020):
Read-outs that look alike come from different tables or passages of the source.

Molecular target: Arf6 (Homo sapiens (Human), UniProt P62330)
Assay: Fluorometric assay for Arf6 nucleotide exchange catalyzed by ARNO Sec7 domain (GTP-BODIPY FL)
Assay type: biochemical
Procedure: FIGS. 1A-1D: Fluorometric high throughput assay for Arf6 nucleotide exchange catalyzed by ARNO Sec7 domain. FIG. 1A: Principle of the assay. FIG. 1B: SDS-PAGE analysis of N-terminally His-tagged Arf6(14-175) and ARNO(50-255) purified from the E. coli cultures by immobilized metal affinity chromatography. FIG. 1C: Correlation between signal intensity and ARNO concentration. The assay was performed using 50 mM Tris-HCl, pH 7.5, 1 mM MgCl2, 0.01% TX-100, 1% DMSO, 50 nM GTP-BODIPY FL, supplemented with ARNO-Sec7 at indicated concentrations in the absence or in the presence of 0.2 μM Arf6-GDP. Fluorescence intensities were monitored using a Synergy 4 plate reader (BioTek) at the excitation and emission wavelengths of 490 nm and 520 nm, respectively. FIG. 1D: Time course of apparent inhibitory potency of GDP. The assay was performed in automated mode using a Matrix PlateMate liquid handler.
The primary biochemical assay uses a fluorometric assay for monitoring the replacement of bound nucleotide with a fluorogenic GTP derivative bearing a BODIPY FL moiety, allowing for the identification of compounds that can inhibit this exchange (see FIG. 1A). In certain embodiments, the methods disclosed herein may exploit the reduction of intramolecular fluorescence quenching of the modified nucleotide upon its binding to the target protein (see, e.g., McEwen D P, Gee K R, Kang H C, Neubig R R. Fluorescent BODIPY-GTP analogs: real-time measurement of nucleotide binding to G proteins. Anal Biochem. 2001 Apr. 1; 291(1): 109-17).
The fluorometric assay formatted for 96-well microtiter plates has passed quality control based on the following criteria: i) S/B ratio of 4-fold and Z′-factor of 0.61; ii) linear correlation between signal intensity and ARNO concentration (see FIG. 1C); iii) sufficiently reproducible inhibitory effects of the reference inhibitor GDP for assay durations up to at least 1 hour (see FIG. 1D); and iv) lack of apparent fluorescence quenchers among 400 randomly selected compounds. The assay is amenable to automation with a throughput of approximately 5,000 data points per 8 hours.

[1] = 20 nM Arf6 assay, read-out: IC50 (μM) 20 nM Arf6
[2] = 200 nM Arf6 assay, read-out: IC50 (μM) 200 nM Arf6

Sequence of Arf6 (P62330 14-175): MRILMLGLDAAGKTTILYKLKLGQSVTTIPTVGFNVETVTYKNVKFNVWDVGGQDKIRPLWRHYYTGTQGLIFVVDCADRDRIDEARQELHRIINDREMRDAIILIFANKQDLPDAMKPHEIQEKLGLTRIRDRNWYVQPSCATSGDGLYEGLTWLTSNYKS

Row | SMILES | IC50 [1] | IC50 [2] | inhibition at 10 µM (20 nM assay, 10 μM concentration)
1 | CC(C)(C)c1nn2c(=O)cc(-c3cccnc3)[nH]c2c1-c1ccc(Cl)cc1 [Compound 84] | 6.4 µM | – | –
2 | N#Cc1ccc(-c2cc(=O)c3nc(C4CC4)c(-c4ccc(Cl)cc4)n3[nH]2)cc1 [Compound 108] | 16 µM | – | –
3 | CCS(=O)(=O)Nc1ccc(-c2cc(=O)n3nc(C)c(-c4ccc(Cl)cc4)c3[nH]2)cc1 [Compound 96] | 10 µM | – | –
4 | Cn1c(N)c(C(=O)COC(=O)c2ccccc2SCc2ccc(C#N)cc2)c(=O)[nH]c1=O [Compound 134] | 13 µM | – | –
5 | CC(C)(C)c1nn2c(=O)cc(-c3cccc(C(N)=O)c3)[nH]c2c1-c1ccc(Cl)cc1 [Compound 85] | 6.6 µM | – | –
6 | O=c1cc(-c2ccccc2)[nH]c2c(-c3ccccc3)c(Cc3ccccc3)nn12 [Compound 95] | – | 9.4 µM | –
7 | O=c1c(-c2cccc3ccccc23)c(C(F)(F)F)oc2cc(O)ccc12 [Compound 140] | – | 29 µM | –
8 | O=c1c2c(-c3ccc(Cl)cc3)csc2[nH]c(=S)n1Cc1ccccc1 [Compound 129] | – | 9.7 µM | –
9 | CS(=O)(=O)c1ccc(-c2cc(=O)n3nc(C4CC4)c(-c4ccc(Cl)cc4)c3[nH]2)cc1 [Compound 91] | 7.9 µM | – | –
10 | CSc1nnc2c(n1)OC(c1cc(O)ccc1[N+](=O)[O-])Nc1ccccc1-2 (stereo not drawn) [Compound 137] | 17 µM | – | –
11 | CCCCC1CCCN1c1cc(C2CCNCC2)ncn1 (stereo not drawn) [Compound 144] | – | – | ~35%
12 | Cc1nn2c(=O)cc(-c3ccc([N+](=O)[O-])cc3)[nH]c2c1-c1ccc(OC(F)(F)F)cc1 [Compound 101] | 13 µM | – | –
13 | CCCc1cc(=O)[nH]c(SCc2cc(=O)n3cc(Br)ccc3n2)n1 [Compound 132] | 30 µM | – | –
14 | COc1ccc(-c2cc(=O)n3nc(Cc4ccccc4)c(-c4ccc(Cl)cc4)c3[nH]2)cc1 [Compound 83] | – | 6.2 µM | –
15 | O=C1NC(=O)c2ccccc2/C1=C/c1cnn(Cc2ccccc2)c1 [Compound 124] | 5.4 µM | – | –
16 | COc1ccc(-c2c(C)nn3c(=O)cc(-c4ccc([N+](=O)[O-])cc4)[nH]c23)cc1 [Compound 109] | – | 17 µM | –
17 | Cc1ccc(C(=O)OCc2cc(=O)n3cc(Br)ccc3n2)cn1 [Compound 130] | 9.9 µM | – | –

Row | SMILES | IC50 [1] | IC50 [2] | inhibition at 10 µM (20 nM assay, 10 μM concentration)
18 | O=c1cc(-c2ccc([N+](=O)[O-])cc2)[nH]c2c(-c3ccc(Cl)cc3)cnn12 [Compound 60] | – | 3.2 µM | –
19 | O=c1cc(Cc2cccnc2)[nH]c2c(-c3ccc(Cl)cc3)c(C(F)(F)F)nn12 [Compound 102] | 14 µM | 17 µM | –
20 | Cc1nn2c(=O)cc(-c3ccc(F)cc3)[nH]c2c1-c1ccc(Cl)cc1 [Compound 93] | 8.2 µM | – | –
21 | Cc1cccc(-n2c(/C=C/c3cccnc3)nc3ccccc3c2=O)c1 [Compound 122] | – | 4.7 µM | –
22 | CC(C)(C)c1nn2c(=O)cc(-c3cccc(S(C)(=O)=O)c3)[nH]c2c1-c1ccc(Cl)cc1 [Compound 87] | 6.7 µM | – | –
23 | Cc1ccn2c(=O)cc(CSc3nc(C)cc(=O)[nH]3)nc2c1 [Compound 131] | 11 µM | – | –
24 | O=c1cc(Cc2ccccc2)[nH]c2c(-c3ccc(Cl)cc3)c(Cc3ccccc3)nn12 [Compound 99] | – | 11 µM | –
25 | COc1ccc(C(=O)Nc2cccc(/C=C3\C(=O)NC(=O)c4ccccc43)c2)cc1 [Compound 125] | 6.5 µM | – | –
26 | O=C(O)c1ccc(-c2cc(=O)n3nc(C4CC4)c(-c4ccc(Cl)cc4)c3[nH]2)cc1 [Compound 107] | 16 µM | – | –
27 | Cc1c(Cc2ccccc2)nn2c(=O)cc(-c3ccc([N+](=O)[O-])cc3)[nH]c12 [Compound 98] | 11 µM | – | –
28 | O=c1cc(-c2ccc([N+](=O)[O-])cc2)[nH]c2c(-c3ccc(Cl)cc3)c(CN3CCOCC3)nn12 [Compound 80] | 5.9 µM | – | –
29 | O=C(O)c1ccc(C2Nc3c(Br)cccc3C3C=CCC32)cc1 (stereo not drawn) [Compound 127] | – | 8 µM | –
30 | O=[N+]([O-])c1ccc(C2=CC(O)n3nc(-c4cccc(Cl)c4)cc3N2)cc1 (stereo not drawn) [Compound 100] | 13 µM | 10 µM | –
31 | Cn1cc(/C=C(\CC(=O)O)C2Nc3ccccc3S2)c(-c2ccc3c(c2)OCCCO3)n1 (stereo not drawn) [Compound 128] | 8.4 µM | – | –
32 | Cc1nn2c(=O)cc(-c3ccc(Cl)cc3)[nH]c2c1-c1ccc(F)cc1 [Compound 105] | – | 15 µM | –
33 | O=C(Nc1cccc(-c2cc(=O)n3nc(C(F)(F)F)c(-c4ccc(Cl)cc4)c3[nH]2)c1)c1ccccc1 [Compound 111] | 20 µM | – | –

More lines, in order of falling IC50 [1], values ahead:

Row | IC50 [1] | IC50 [2] | inhibition at 10 µM (20 nM assay, 10 μM concentration) | SMILES
34 | 5.1 µM | – | – | O=c1cc(-c2ccc([N+](=O)[O-])cc2)[nH]c2c(-c3ccc(Cl)cc3)c(C3CCOCC3)nn12 [Compound 77]
35 | 4.5 µM | – | – | Cc1nn2c(=O)cc(-c3ccc([N+](=O)[O-])cc3)[nH]c2c1-c1ccc(Cl)cc1Cl [Compound 76]
36 | 4.3 µM | – | – | CC(=O)Nc1cccc(-c2cc(=O)n3nc(C(F)(F)F)c(-c4ccc(Cl)cc4)c3[nH]2)c1 [Compound 74]
37 | 4.1 µM | – | – | COC(=O)c1ccc(-c2cc(=O)n3nc(C4CC4)c(-c4ccc(Cl)cc4)c3[nH]2)cc1 [Compound 71]
38 | 3.8 µM | – | – | Cc1nn2c(=O)cc(-c3ccc(NS(=O)(=O)Cc4ccccc4)cc3)[nH]c2c1-c1ccc(Cl)cc1 [Compound 68]
39 | 3.7 µM | – | – | O=C1NC(=S)S/C1=C/c1ccc(N2N=C(c3ccccc3)CC2c2ccccc2)cc1 (stereo not drawn) [Compound 121]
40 | 3.4 µM | – | – | O=c1nc(/C=C/c2ccc(-c3cc(Cl)cc(Cl)c3)o2)cc(C(F)(F)F)[nH]1 [Compound 120]
41 | 3.2 µM | – | – | N#Cc1ccc(-c2cc(=O)n3nc(C4CC4)c(-c4ccc(Cl)cc4)c3[nH]2)cc1 [Compound 58]
42 | 2.8 µM | 4.8 µM | – | O=c1cc(-c2ccc([N+](=O)[O-])cc2)[nH]c2c(-c3ccc(Cl)cc3)c(Cc3cccnc3)nn12 [Compound 52]
43 | 2.7 µM | 4.9 µM | – | Cc1nn2c(=O)cc(-c3ccc([N+](=O)[O-])cc3)[nH]c2c1-c1cccc2ccccc12 [Compound 51]
44 | 2.5 µM | – | – | O=c1c(Cl)c(-c2ccccc2)[nH]c2c(-c3ccc(Cl)cc3)c(Cc3ccccc3)nn12 [Compound 49]
45 | 2.5 µM | – | – | CC(C)CC(=O)Nc1cccc(-c2cc(=O)n3nc(C(F)(F)F)c(-c4ccc(Cl)cc4)c3[nH]2)c1 [Compound 50]
46 | 2.4 µM | 3.2 µM | – | O=c1cc(-c2ccc([N+](=O)[O-])cc2)[nH]c2c(-c3ccc(Cl)cc3)c(Cc3ccncc3)nn12 [Compound 46]
47 | 2.4 µM | – | – | O=c1cc(-c2ccc(-c3ccncc3)cc2)[nH]c2c(-c3ccc(Cl)cc3)c(C(F)(F)F)nn12 [Compound 47]
48 | 2.2 µM | – | – | CC(C)(C)c1nn2c(=O)cc(-c3cccc(C#N)c3)[nH]c2c1-c1ccc(Cl)cc1 [Compound 44]
49 | 2.1 µM | – | – | Cc1nn2c(=O)cc(-c3ccc([N+](=O)[O-])cc3)[nH]c2c1-c1cc(Cl)cc(Cl)c1 [Compound 43]

Row | IC50 [1] | IC50 [2] | inhibition at 10 µM (20 nM assay, 10 μM concentration) | SMILES
50 | 2.1 µM | – | – | O=C(Nc1cc(Cl)c(-c2cccc3cccnc23)c(Cl)c1)c1cc(Cl)cc(Br)c1O [Compound 119]
51 | 1.5 µM | 3.3 µM | – | O=c1cc(-c2ccccc2)[nH]c2c(-c3ccc(Cl)cc3)c(Cc3ccccc3)nn12 [Compound 29]
52 | 1.5 µM | – | – | CC(C)(C)c1nn2c(=O)cc(-c3ccccc3C#N)[nH]c2c1-c1ccc(Cl)cc1 [Compound 32]
53 | 1.5 µM | – | – | Cc1nn2c(=O)cc(-c3ccc([N+](=O)[O-])cc3)[nH]c2c1-c1ccc(Oc2ccccc2)cc1 [Compound 30]
54 | 1.4 µM | – | – | COc1cc(-c2c(C)nn3c(=O)cc(-c4ccc([N+](=O)[O-])cc4)[nH]c23)ccc1Cl [Compound 26]
55 | 1.2 µM | – | – | O=c1cc(-c2ccc([N+](=O)[O-])cc2)[nH]c2c(-c3ccc(Cl)c(Cl)c3)c(C3CC3)nn12 [Compound 22]
56 | 1.1 µM | – | – | Cc1nn2c(=O)cc(-c3ccc([N+](=O)[O-])cc3)[nH]c2c1-c1ccc(-c2ccccc2)cc1 [Compound 18]
57 | 1.1 µM | – | – | O=c1cc(-c2ccc(Br)cc2)[nH]c2c(-c3ccc(Cl)cc3)c(C(F)(F)F)nn12 [Compound 15]
58 | 1.1 µM | – | – | N#Cc1c(=O)n(-c2ccc(Cl)cc2)nc2c(=O)n(N)c(-c3ccccc3Cl)cc12 [Compound 114]
59 | 1 µM | – | – | O=c1cc(-c2cccc(Oc3ccccc3)c2)[nH]c2c(-c3ccc(Cl)c(Cl)c3)c(C3CC3)nn12 [Compound 14]
60 | 1 µM | – | – | CCC(=O)Nc1ccc(-c2cc(=O)n3nc(C(F)(F)F)c(-c4ccc(Cl)cc4)c3[nH]2)cc1 [Compound 16]
61 | 0.98 µM | – | – | O=c1c(Cl)c(-c2ccccc2)[nH]c2c(-c3ccc(Cl)cc3)c(C(F)(F)F)nn12 [Compound 13]
62 | 0.84 µM | 1.6 µM | – | O=c1cc(Cc2ccccc2)[nH]c2c(-c3ccc(Cl)c(Cl)c3)c(C(F)(F)F)nn12 [Compound 9]
63 | 0.67 µM | – | – | O=c1cc(-c2ccc([N+](=O)[O-])cc2)[nH]c2c(-c3ccc(Cl)c(C(F)(F)F)c3)c(C(F)(F)F)nn12 [Compound 8]
64 | 0.66 µM | 1.1 µM | – | O=c1cc(-c2ccc(Oc3ccccc3)cc2)[nH]c2c(-c3ccc(Cl)c(Cl)c3)c(C(F)(F)F)nn12 [Compound 6]
